Laboratory results taken from paper PMC2629123, “Trypanosoma cruzi CYP51 Inhibitor Derived from a Mycobacterium tuberculosis Screen Hit” (PLoS Neglected Tropical Diseases, 2009).
Like-named read-outs stand apart in the source and are kept apart here.

Legend:
CYP51Tc = target: T1, CYP51Tc (Trypanosoma cruzi, UniProt Q7Z1V1); assay: biochemical; format: binding
T1 construct: His6 (C); made in house; host or cells: Escherichia coli HMS174(DE3)

CYP51Tb = target: T2, CYP51Tb (Trypanosoma brucei brucei, UniProt Q385E8, L2A); assay: biochemical; format: binding; details: spectral titration, room temperature, pH 7.5
T2 construct: His8 (C); made in house; host or cells: E. coli HMS174(DE3) co-transformed with pGro7 (GroES/GroEL)
T2 sequence (Q385E8 whole entry L2A): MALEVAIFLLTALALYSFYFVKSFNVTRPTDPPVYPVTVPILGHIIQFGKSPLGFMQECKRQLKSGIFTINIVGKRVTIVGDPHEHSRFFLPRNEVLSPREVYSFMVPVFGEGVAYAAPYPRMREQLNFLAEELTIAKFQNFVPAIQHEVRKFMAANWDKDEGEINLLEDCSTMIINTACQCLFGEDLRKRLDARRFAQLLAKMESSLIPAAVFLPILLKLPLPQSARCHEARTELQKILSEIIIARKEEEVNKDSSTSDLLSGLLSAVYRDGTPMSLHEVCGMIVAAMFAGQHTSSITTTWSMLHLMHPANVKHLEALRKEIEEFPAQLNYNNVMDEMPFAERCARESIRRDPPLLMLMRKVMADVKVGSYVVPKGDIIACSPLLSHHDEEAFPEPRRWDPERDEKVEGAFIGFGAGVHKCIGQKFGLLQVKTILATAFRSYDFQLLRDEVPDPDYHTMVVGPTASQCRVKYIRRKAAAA

[1] = test system: T. cruzi Y strain trypomastigotes; assay: T. cruzi assay: infection of J774 mouse macrophages, long-term treatment and cure; format: cell-based, Trypanosoma cruzi; details: 10 µM, infected J774 macrophages, treatment up to 27 days then 13–15 days without inhibitor
Procedure: Irradiated (1000 rads) J774 mouse macrophages were plated in 12-well tissue culture plates 24 h prior to infection with 10^5 T. cruzi Y strain trypomastigotes for 2 h at 37°C. […] Untreated controls, controls treated with the inhibitor K11777 (10 µM),[31], and uninfected macrophage controls were also included. All cultures were in triplicate and medium was replaced every 48 h. Treatment with CYP51 inhibitors continued for up to 27 days. Subsequently, treated cultures were maintained without inhibitor for an additional 13–15 days to confirm inhibitor effectiveness and cure of infected cells. Cultures were monitored daily by contrast phase microscopy to determine presence of T. cruzi infected cells and free infectious trypomastigotes (Table 2).

[2] = test system: T. cruzi intracellular amastigotes; assay: IC50: T. cruzi intracellular amastigotes in J774 macrophages, parasites/cell; format: cell-based, Trypanosoma cruzi; details: 52 h; for mean number of parasites/cell: untreated 3.57±0.5 P/cell
Procedure: To determine IC50, mouse J774 macrophages were irradiated (1000 rads) to deter growth and plated onto 12-well tissue culture plates. Cells were infected with 10^5 tissue culture trypomastigotes of the Y strain of T. cruzi for 2 h at 37°C, as described above. […] All treatments were performed in triplicate to ensure statistical validity. Cultures were then fixed in 4% paraformaldehyde in PBS for 2 h at room temperature and stained with DAPI (10 nM) in PBS. One hundred cells and their intracellular parasites were quantified as previously described to estimate the mean number of parasites/cell. Mean P/cell data were plotted against compound concentration to estimate the IC50.

T. brucei = T. brucei assay, viability by ATP-bioluminescence (CellTiter-Glo); format: cell-based, Trypanosoma brucei; details: highest tested concentration 10 µM, 48 h
Procedure: Trypanosomes were grown in complete HMI-9 medium containing 10% FBS, 10% Serum Plus medium (Sigma Inc. St. Louis Mo. USA) and 1× penicillin/streptomycin. Trypanosomes were diluted to 1.0×10^5/ml in complete HMI-9 medium. Diluted trypanosomes were aliquoted in Greiner sterile 96-well flat white opaque culture plates using a WellMate cell dispenser (Matrix Tech., Hudson, NH, USA). Compounds 8 and 10 were serially diluted in Me2SO. Trypanosomes were incubated with the compounds for 48 h at 37°C with 5% CO2 before monitoring viability. Trypanosomes were then lysed in the wells by adding 50 µl of CellTiter-GloTM (Promega Inc., Madison, WI, USA). Lysed trypanosomes were placed on an orbital shaker at room temperature for 2 min. The resulting ATP-bioluminescence of the trypanosomes in the 96-well plates was measured at room temperature using an Analyst HT plate reader (Molecular Devices, Sunnyvale, CA, USA).

[3] = spectral titration, room temperature, pH 7.5, read-out: KD, μM CYP51Tc

T1 sequence (Q7Z1V1 21-481, looked up, natural form): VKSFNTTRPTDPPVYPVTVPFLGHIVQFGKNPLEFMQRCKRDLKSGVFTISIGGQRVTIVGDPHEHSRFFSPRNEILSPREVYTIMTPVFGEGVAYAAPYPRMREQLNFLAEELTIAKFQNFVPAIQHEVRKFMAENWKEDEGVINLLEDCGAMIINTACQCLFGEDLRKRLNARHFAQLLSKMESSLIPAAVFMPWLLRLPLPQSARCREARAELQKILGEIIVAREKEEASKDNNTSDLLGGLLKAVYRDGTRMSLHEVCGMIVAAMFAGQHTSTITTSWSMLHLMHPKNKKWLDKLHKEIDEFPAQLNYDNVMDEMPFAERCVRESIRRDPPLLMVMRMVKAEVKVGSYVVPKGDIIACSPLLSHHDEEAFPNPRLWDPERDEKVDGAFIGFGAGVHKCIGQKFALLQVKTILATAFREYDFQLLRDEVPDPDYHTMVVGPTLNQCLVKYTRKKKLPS

Structure (SMILES) | Kd (CYP51Tc; [3]) [µM] | Kd (CYP51Tb) [µM] | KD, μM CYP51Tb (CYP51Tb) | Host cell survival [1] [days] | T. cruzi development [1] | mean number of parasites/cell ([2]; 10 µM) [P/cell] | inhibitory effects against cultured T. brucei (T. brucei) | other results
Cn1c(=O)c2c(ncn2CC(=O)Nc2ccncc2)n(C)c1=O [Compound 7] | 20.7 ± 0.8 | > 100 |  |  |  |  |  | 
Cc1ccc(S(=O)(=O)NCCCOC(=O)Nc2ccncc2)cc1 [Compound 8, 3-{[(4-methylphenyl)sulfonyl]amino}propylpyridin-4-ylcarbamate] |  |  | no binding | 5 | 5 days | 1.22±0.1 | neither compound 8 nor 10 had any inhibitory effects | Kd (CYP51Tc; KD (affinity toward CYP51Tc), spectral assays): 0.16 µM; Kd (CYP51Tc; KD, μM CYP51Tc, spectral titration, room temperature, pH 7.5): 0.16 ± 0.03 µM
CSCC[C@H](NC(=O)[C@H]1CC[C@@H](C)CC1)C(=O)Nc1ccncc1 [Compound 9, cis-4-methyl-N-[(1S)-3-(methylsulfanyl)-1-(pyridin-4-ylcarbamoyl)propyl]cyclohexanecarboxamide] |  | 6.5 ± 0.6 |  |  |  |  |  | 
CC1CCC(C(=O)NC(Cc2c[nH]c3ccccc23)C(=O)Nc2ccncc2)CC1 (centres unmarked) [Compound 10] |  |  | no binding | 40 | No | 0.25±0.01 | neither compound 8 nor 10 had any inhibitory effects | T. cruzi development ([1]; listed as compound 10): No parasites survived; inhibition at 10 µM ([2]; Trypanosoma cruzi, 10 µM, read-out: growth inhibition): 100%; IC50 ([2]; Trypanosoma cruzi, Y strain, read-out: IC50 for T. cruzi intracellular growth inhibition): ~1 nM; inhibitory effects against cultured T. brucei (T. brucei; listed as compound 10): inactive
CCC(C(=O)Nc1ccncc1)c1ccccc1 (stereo not drawn) [EBPA, α-ethyl-N-4-pyridinyl-benzeneacetamide, reference compound] | 0.48 ± 0.08 |  |  |  |  |  |  | 
